For test [1], the system named is human mesenchymal stem cells (hMSC). Put plainly: hMSC growth kinetics, cumulative population doublings with time in culture. The following applies: for population doublings after which cultures stopped proliferating: hMSC, from the start of the treatment, PBS cultures senesced after 21-25 PDs, n=3; for hMSC life span / time of proliferation in culture: versus PBS control. It is filed as cell-based.

The test system is the same in test [2]. The experiment in a line: Immunostaining of γH2AX DNA damage foci (double stranded breaks) in hMSC. Format: cell-based. The following applies: for number of γH2AX DNA damage foci after irradiation: 1Gy irradiation, compound at 1 μM, foci at 4 h (Zol also 12, 24 h) versus PBS; for effect of Zol on DNA damage after addition of prenylation intermediate: 1Gy, Zol plus FOH or GGOH (33 μM). Here is the method:
DNA damage was induced by exposing hMSC to ^137Cs Gamma source. Cells were washed with PBS and fixed with 4% Para-formaldehyde for […]. Cells were then washed with PBS permeabilized with 0.5% Triton-X (Sigma, UK) for […] and blocked with 5% normal goat serum (DAKO, Glostrup, Denmark) in PBS for 1 hr. This was followed by incubation with primary antibody, anti-phospho histone H2AX (Ser139) (Millipore, Massachusetts, USA) used at 1:800 in 5% normal goat serum, overnight at 4° C. Cells were then washed in PBS and incubated in secondary Anti mouse IgG Fluorescein Isothiocyanate (FITC) conjugated (Insight Biotechnology, Santa Cruz, USA) at 1:200 in PBS for 1 hour at room temperature. The cover-slips were mounted on slides with mounting media (VectaShield) containing 4',6-diamidino-2-phenylindole (DAPI) to stain the nuclei. […] Cells were viewed using in an Inverted Zeiss LSM 510 NLO microscope equipped with Argon (Ar) laser (488 nm) 30 mW to image the fluorescent marker FITC and UV lamp to image DAPI stained nuclei. Five to seven fields consisting of 25 cells in total were randomly selected from a tile scan (20×) and individual cells viewed at 63× were then scored for γH2AX DNA damage foci using ImageJ 1.45 software (http://rsbweb.nih.gov/ij/). One of the factors affecting cellular lifespan is accumulation of DNA damage.

A further test deals with T1, FPP synthase (Homo sapiens, UniProt P14324).
T1 sequence (P14324 1-419): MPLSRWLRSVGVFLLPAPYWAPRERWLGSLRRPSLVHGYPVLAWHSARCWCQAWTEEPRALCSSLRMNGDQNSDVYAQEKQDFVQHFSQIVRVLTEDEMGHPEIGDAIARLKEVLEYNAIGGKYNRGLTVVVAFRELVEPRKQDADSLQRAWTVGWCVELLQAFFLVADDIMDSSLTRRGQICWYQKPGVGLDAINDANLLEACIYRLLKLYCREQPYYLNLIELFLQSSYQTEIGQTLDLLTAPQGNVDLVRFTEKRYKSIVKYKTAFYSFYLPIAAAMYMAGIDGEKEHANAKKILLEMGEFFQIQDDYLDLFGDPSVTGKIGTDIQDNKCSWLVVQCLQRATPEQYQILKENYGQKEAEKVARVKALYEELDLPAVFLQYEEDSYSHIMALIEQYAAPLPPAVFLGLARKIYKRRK
Put plainly: Prenyl synthase assay (FPP synthase activity). Format: biochemical. Here is the method: FPP synthase activity was measured by the method of Reed and Rilling (Reed, B. C. & Rilling, H. C. (1976) Biochemistry 15, 3739-3745) with modifications. Assays were set up such that the final volume was 100 ul. The assay conditions were 50 mM Tris pH7.7, 2 mM MgCl2, 0.5 mM TCEP, 20 μg/ml BSA. For FPP synthase assays the final enzyme concentration was 10 nM. All substrates were at 10 μM final concentration each substrate, all reactions were with IPP (14C-IPP, 400Kq/μMol American Radiochem. Corp). For FPP synthase GPP was the second substrate. Bisphosphonate was added as 1/10th volume of a 10× stock solution and allowed to preincubate for 10 minutes with the enzyme in a volume of 80 ul and the reaction started by the addition of 20 ul of the combined substrate. The reaction was allowed to proceed for 4 minutes at 37° C. before being terminated by the addition of 0.2 ml of conc. HCI/Methanol (1:4) and incubated for a further 10 mins at 37° C. The reaction mixtures were then extracted with 0.4 ml of immiscible scintillation fluid (Microscint E, Perkin Elmer) to separate reaction products from unused substrate and were counted directly with a microbeta scintillation counter (Perkin Elmer).

Test [3] concerns zebrafish embryo caudal fin. Put plainly: Zebrafish tail amputation and regeneration following irradiation. The settings on record: irradiated embryos, Zol plus FOH or GGOH. Format: in vivo, Zebrafish (Danio Rerio H). On the procedure: Embryos from wild-type Zebrafish (Danio Rerio H) AB strain were collected at 16 cell stage (˜1.5 hours post fertilisation (hpf)) and grown in E3 Medium at 28° C. Embryos were treated with Zoledronate (1 μM) and/or FOH, GGOH at 24 hpf. DNA damage was induced by exposure to ^137Cs Gamma source at 48 hpf and after irradiation the embryo tails were amputated and the embryos were then incubated at 28° C. for a further 12 hrs in the presence of the chemicals. At the end of this period the chemicals were washed off and the embryos were incubated in fresh medium with no chemicals. The embryos were grown up to 120 hpf, following which they were fixed in 4% PFA overnight and then mounted in 100% glycerol. The tail lengths of embryos were measured taking the anal region as starting reference point and the end of the fin fold as the ending point of measurement.

Read-outs that look alike come from different tables or passages of the source.

Regarding `NCCCC(O)(P(=O)(O)O)P(=O)(O)O` [Alendronate], in test [1], the “population doublings after which cultures stopped proliferating” value is recorded as 27-30 PDs and the “hMSC life span / time of proliferation in culture” value is reported as “extend hMSC lifespan”. In test [2], the “number of γH2AX DNA damage foci after irradiation” value (“number of γH2AX DNA damage foci” below) is reported as “enhance repair of DNA damage”.

For the compound `O=P(O)(O)C1CC2CCCNC2C1P(=O)(O)O` (stereo not shown) [Compound A, 2-Azabicyclo-[4.3.0]nonane-8,9-diphosphonic acid], the “affinity for / inhibitory potency on FPP synthase” value (“affinity for / inhibitory potency” below) at FPP synthase was “high affinity”; on FPP synthase (listed as compound A) it was “high”. Further, the “number of γH2AX DNA damage foci” value in test [2] is “significant decrease”; in test [2] (listed as compound A), “significant reduction in DNA damage”.

Turning to `O=P(O)(O)C1CC2CCCNC2C1P(=O)(O)O` (stereo not shown) [Compound B, 2-Azabicyclo-[4.3.0]nonane-8,9-diphosphonic acid], the “affinity for / inhibitory potency” value at FPP synthase is listed as “low affinity”; on FPP synthase (listed as compound B), “low”. For the same compound, in test [2], the “number of γH2AX DNA damage foci” value is “not”.

`O=P(O)(O)C(F)(Cc1cnc2ccccn12)P(=O)(O)O` [Compound C, 1-fluoro-2-(imidazo-[1,2-a]pyridine-3-yl)-ethyl-bisphosphonic acid]: the “affinity for / inhibitory potency” value at FPP synthase is given as “high inhibitory potency”. Also, in test [2] (Compound C at increasing concentrations, 4 hours after irradiation), the “DNA repair (γH2AX DNA damage foci), concentration dependence” value was “enhances DNA repair in a dose dependent manner”.

As for `CC(C)=CCC/C(C)=C/CC/C(C)=C/CO` [FOH, Trans, trans farnesol], in test [2], the “effect of Zol on DNA damage after addition of prenylation intermediate” value is reported as “reversed”. Also, the “Zol-mediated fin repair process after addition of FOH or GGOH” value in test [3] is reported as “abrogated”.

Consider `CC(C)=CCC/C(C)=C/CC/C(C)=C/CC/C(C)=C/CO` [GGOH, geranylgeraniol], for which the “effect of Zol on DNA damage after addition of prenylation intermediate” value in test [2] was “reversed”. Also, in test [3], the “Zol-mediated fin repair process after addition of FOH or GGOH” value is reported as “abrogated”.

On to `O=P(O)(O)C(O)(Cc1cccnc1)P(=O)(O)O` [Risedronate], for which, in test [1], the “population doublings after which cultures stopped proliferating” value was 29-34 PDs and the “hMSC life span / time of proliferation in culture” value is recorded as “extend hMSC lifespan”. For the same compound, in test [2], the “number of γH2AX DNA damage foci” value is reported as “enhance repair of DNA damage”.
